Results from patent US11859209B2, “Method for inducing osteogenic differentiation” (KYOTO UNIVERSITY, priority 2017, dated 2024).

How the values were obtained:
iPS cells = assay: Amount of calcium salt deposition (OCPC), one-procedure osteogenic differentiation method; assay type: cell-based, human
Procedure: On-feeder iPS cells were cultured under feeder-free conditions on Matrigel coating in mTeSR (product name, Stemcell Technologies) for three days (D-3 to D0). The cells were seeded on gelatin coating and cultured in a mixed culture medium of osteogenic induction medium (OI medium) and mTeSR (mixing ratio=4:1) supplemented with a ROCK inhibitor (ROCKi) and retinoic acid (RA) for the first two days (D0 to D2). The cells were then cultured in osteogenic induction medium supplemented with retinoic acid (RA) until D10. As a control, cells were cultured in the same culture medium without retinoic acid.
iPS cells were cultured under feeder-free conditions on laminin coating in StemFit AK03N (product name, Ajinomoto Healthy Supply), and then cultured in a mixed culture medium of osteogenic induction medium (OI medium) and mTeSR (mixing ratio=4:1) supplemented with a ROCK inhibitor (ROCKi) and retinoic acid (RA) for the first two days (D0 to D2). The cells were then cultured in osteogenic induction medium supplemented with retinoic acid (RA) until D10. As a control, cells were cultured in the same culture medium without retinoic acid.
(§1) For the evaluation of calcified nodule-forming capacity, the cultured cells were fixed in ethyl alcohol, reacted with alizarin red staining solution for 10 minutes and washed. The positive nodules were evaluated qualitatively. Calcium salt deposition was determined quantitatively by measuring the intensity of color produced by o-cresolphthalein complexon (OCPC) solution.
Next, induction of osteogenic differentiation via BMP and WNT was investigated using inhibitors against them. Cells were cultured in culture medium supplemented with a BMP inhibitor (LDN) or a WNT inhibitor (IWR1) for 10 days, and the amount of calcium salt deposition was determined. […] The results confirmed that both of BMP and WNT signals are implicated in the induction of osteogenic differentiation by retinoic acid.
Cells were cultured in culture medium supplemented with BMS 493, which is an antagonist against all the retinoic acid receptors (pan-RAR antagonist) for 10 days, and the amount of calcium salt deposition was determined.
Next, the effects of siRNAs on each RAR were analyzed. […] However, addition of siRNAs against RARα (α#1 and α#2) and siRNAs against RARβ (β#1 and β#2) reduced the bone-forming capacity. […] In the figure, CTL indicates cell culture supplemented with a control siRNA, and (−) indicates cell culture with no siRNA.
Cells were subjected to the one-procedure osteogenic differentiation method in osteogenic induction medium supplemented with a retinoic acid receptor (RAR) agonist instead of retinoic acid (RA). The amount of calcium salt deposition was determined on day 10. As with addition of retinoic acid, the amount of calcium salt deposition was increased by the addition of the RARα agonists Am 580 (200 nM) and Am 80 (1 μM), or the RARβ agonists CD2314 (3 μM) and AC 55649 (3 μM).

[1] = test system: iPS cells derived from osteogenesis imperfecta patients having abnormalities of the COL1A1 gene; assay: Expression of ER stress-related gene BiP in cells induced from OI patient-derived iPS cells; assay type: cell-based, human; settings: 100 nM added from day 2, assessed on day 10; FIG. 21
Description: (§2) iPS cells (OI#1-1 and OI#2-1) were established from two OI patients (OI#1 and OI#2) having an abnormal COL1A1 gene. The respective mutations in the COL1A1 gene in the iPS cells were restored by genome editing technology to generate rescued iPS cells (resOI#1-1 and resOI#2-1). These iPS cells and standard iPS cells (WT1, 414C2; WT2, 409B2) were subjected to induction of osteogenic differentiation by the one-procedure osteogenic differentiation method. On day 10 of induction, the cells were compared in terms of the capacity of calcified nodule formation, the amount of calcium salt deposition, the expression of an ER stress-related gene, and the capacity of type I collagen secretion.
(§3) Accordingly, the inventors investigated whether the one-procedure osteogenic differentiation method can recapitulate the effects of an mTOR inhibitor. Rapamycin (10 nM) or everolimus (100 nM) was added to the culture medium from day 2 of the induction, and differentiation capacity was assessed on day 10.

[2] = test system: iPS cells derived from osteogenesis imperfecta patients having abnormalities of the COL1A1 gene; assay: Alizarin red staining of cells induced from OI patient-derived iPS cells; assay type: cell-based, human; settings: 100 nM added from day 2, assessed on day 10; FIG. 19
Procedure: as §1, §2, §3

[3] = test system: iPS cells derived from osteogenesis imperfecta patients having abnormalities of the COL1A1 gene; assay: Type I collagen secretion by immunostaining with anti-type I collagen antibody, OI patient-derived iPS cells; assay type: cell-based, human; settings: 100 nM added from day 2, assessed on day 10; FIG. 22
Description: as §2, §3

[4] = test system: iPS cells derived from osteogenesis imperfecta patients having abnormalities of the COL1A1 gene; assay: Calcium salt deposition of cells induced from OI patient-derived iPS cells; assay type: cell-based, human; settings: 100 nM added from day 2, assessed on day 10; FIG. 20
Procedure: as §1, §2, §3

[5] = test system: bone defects of 4 mm in diameter created in the cranium of NOD-SCID mice; assay: Transplantation of day 7 induced cells into cranial bone defects, micro-CT and histology after six weeks; settings: transplanted cells cultured in osteogenic induction medium supplemented with retinoic acid, FIG. 8B
[6] = day 10, agonist instead of retinoic acid, 3 μM, FIG. 14
[7] = day 10, agonist instead of retinoic acid, 1 μM, FIG. 14

Question: How did the “amount of calcium salt deposition” value (iPS cells; day 10, agonist instead of retinoic acid, 200 nM, FIG. 14) turn out when `CC1(C)CCC(C)(C)c2cc(C(=O)Nc3ccc(C(=O)O)cc3)ccc21` [Am 580] was run?
Answer: increased

Question: With `CO[C@H]1C[C@@H]2CC[C@@H](C)[C@@](O)(O2)C(=O)C(=O)N2CCCC[C@H]2C(=O)O[C@H]([C@H](C)C[C@@H]2CC[C@@H](OCCO)[C@H](OC)C2)CC(=O)[C@H](C)/C=C(\C)[C@@H](O)[C@@H](OC)C(=O)[C@H](C)C[C@H](C)/C=C/C=C/C=C/1C` [everolimus] as the compound, how does the “ER stress (expression of the ER stress-related gene BiP)” value [1] read?
Answer: suggested reduction of ER stress

Question: What about the “capacity of forming alizarin red-positive calcified nodules” value [2] of the same compound?
Answer: improves

Question: And the “Type I collagen secretion and distribution” value [3]?
Answer: remarkably improved

Question: What about the “amount of calcium salt deposition” value [4] of the same compound?
Answer: improves

Question: With `CCCCCCCCc1ccc(-c2ccc(C(=O)O)cc2)cc1` [AC 55649] as the compound, how does the “amount of calcium salt deposition” value (iPS cells; [6]) read?
Answer: increased

Question: Which “amount of calcium salt deposition” value (iPS cells; day 10, agonist instead of retinoic acid, 100 nM, FIG. 14) does the source give for `CC1(C)CCC(C)(C)c2cc(Cn3cccn3)c(/C=C/c3ccc(C(=O)O)cc3)cc21` [R667] here?
Answer: such effects were not observed

Question: For `CC1(C)CCC(C)(C)c2cc(NC(=O)c3ccc(C(=O)O)cc3)ccc21` [Am 80], which “amount of calcium salt deposition” value (iPS cells; [7]) is on record?
Answer: increased

Question: `CC1(C)CCC(C)(C)c2cc3cc(-c4cc(C(=O)O)cs4)ccc3cc21` [CD2314] was tested. Which “amount of calcium salt deposition” value (iPS cells; [6]) did it give?
Answer: increased

Question: For `CC1(C)CC=C(C#Cc2ccccc2)c2cc(/C=C/c3ccc(C(=O)O)cc3)ccc21` [BMS 493], which “amount of calcium salt deposition” value (iPS cells; culture medium supplemented with pan-RAR antagonist for 10 days, induction by RA, FIG. 12) is on record?
Answer: The effects of RA were completely eliminated

Question: With `CC1=C(/C=C/C(C)=C/C=C/C(C)=C/C(=O)O)C(C)(C)CCC1` [retinoic acid] as the compound, how does the tumor formation [5] read?
Answer: no tumor formation was observed

Question: How did the “amount of calcium salt deposition” value (iPS cells; [7]) turn out when `O=C(O)c1ccc2cc(-c3ccc(O)c(C45CC6CC(CC(C6)C4)C5)c3)ccc2c1` [CD437] was run?
Answer: such effects were not observed

Question: For `O=C(Nc1cccc2cccnc12)c1ccc(N2C(=O)[C@@H]3[C@H](C2=O)[C@@H]2C=C[C@H]3C2)cc1` [IWR1], which “amount of calcium salt deposition” value (iPS cells; culture medium supplemented with BMP or WNT inhibitor for 10 days, induction by retinoic acid, FIG. 11) is on record?
Answer: increase in calcium salt deposition by retinoic acid was inhibited
